The NIST ThermoML archive (doi:10.1021/je900525f)
± gives the expanded uncertainty stated by the source.

Tests used:
[1] = 101 kPa, Liquid; for viscosity: Capillary tube (Ostwald / Ubbelohde) method; for speed of sound: Pulse-echo method
[2] = xn = mol fraction of the nth substance listed; conditions: 101 kPa, Liquid; for viscosity: Capillary tube (Ostwald / Ubbelohde) method; for speed of sound: Pulse-echo method

| SMILES | mass density ([1]; 303.15 K) | viscosity ([1]; 303.15 K) | speed of sound ([1]; 303.15 K) | mass density ([1]; 308.15 K) | viscosity ([1]; 308.15 K) | speed of sound ([1]; 308.15 K) | mass density ([1]; 313.15 K) | viscosity ([1]; 313.15 K) | speed of sound ([1]; 313.15 K) | further results |
| --- | --- | --- | --- | --- | --- | --- | --- | --- | --- | --- |
| N#CCc1ccccc1 [benzeneacetonitrile] | 1008.8 ± 0.7 kg/m3 | 1.761 ± 0.016 mPa·s | 1519.2 ± 9.2 m/s | 1004.1 ± 0.7 kg/m3 | 1.602 ± 0.015 mPa·s | 1512.9 ± 9.2 m/s | 999.5 ± 0.8 kg/m3 | 1.489 ± 0.015 mPa·s | 1503.4 ± 9.1 m/s | – |
| N#CCc1ccccc1 [benzeneacetonitrile] + CCOC(=O)CC#N | – | – | – | – | – | – | – | – | – | viscosity ([2]; 303.15 K, x1 = 1): 1.761 ± 0.016 mPa·s; speed of sound ([2]; 303.15 K, x1 = 1): 1519.2 ± 9.2 m/s; mass density ([2]; 303.15 K, x1 = 1): 1008.8 ± 0.7 kg/m3; viscosity ([2]; 308.15 K, x1 = 1): 1.602 ± 0.015 mPa·s; speed of sound ([2]; 308.15 K, x1 = 1): 1512.9 ± 9.2 m/s; mass density ([2]; 308.15 K, x1 = 1): 1004.1 ± 0.7 kg/m3; viscosity ([2]; 313.15 K, x1 = 1): 1.489 ± 0.015 mPa·s; speed of sound ([2]; 313.15 K, x1 = 1): 1503.4 ± 9.1 m/s; mass density ([2]; 313.15 K, x1 = 1): 999.5 ± 0.8 kg/m3 |
| N#CCc1ccccc1 [benzeneacetonitrile] + CCOC(=O)CCl | – | – | – | – | – | – | – | – | – | viscosity ([2]; 303.15 K, x1 = 1): 1.761 ± 0.016 mPa·s; speed of sound ([2]; 303.15 K, x1 = 1): 1519.2 ± 9.2 m/s; mass density ([2]; 303.15 K, x1 = 1): 1008.8 ± 0.7 kg/m3; viscosity ([2]; 308.15 K, x1 = 1): 1.602 ± 0.015 mPa·s; speed of sound ([2]; 308.15 K, x1 = 1): 1512.9 ± 9.2 m/s; mass density ([2]; 308.15 K, x1 = 1): 1004.1 ± 0.7 kg/m3; viscosity ([2]; 313.15 K, x1 = 1): 1.489 ± 0.015 mPa·s; speed of sound ([2]; 313.15 K, x1 = 1): 1503.4 ± 9.1 m/s; mass density ([2]; 313.15 K, x1 = 1): 999.5 ± 0.8 kg/m3 |
| CCOC(C)=O [ethyl acetate] | 888.9 ± 0.5 kg/m3 | 0.379 ± 0.01 mPa·s | 1118.5 ± 6.8 m/s | 882.6 ± 0.5 kg/m3 | 0.361 ± 0.01 mPa·s | 1097.8 ± 6.6 m/s | 875.9 ± 0.5 kg/m3 | 0.344 ± 0.01 mPa·s | 1081.2 ± 6.5 m/s | – |
| CCOC(C)=O [ethyl acetate] + N#CCc1ccccc1 | – | – | – | – | – | – | – | – | – | viscosity ([2]; 303.15 K, x2 = 0): 0.379 ± 0.01 mPa·s; speed of sound ([2]; 303.15 K, x2 = 0): 1118.5 ± 6.8 m/s; mass density ([2]; 303.15 K, x2 = 0): 888.9 ± 0.5 kg/m3; viscosity ([2]; 308.15 K, x2 = 0): 0.361 ± 0.01 mPa·s; speed of sound ([2]; 308.15 K, x2 = 0): 1097.8 ± 6.6 m/s; mass density ([2]; 308.15 K, x2 = 0): 882.6 ± 0.5 kg/m3; viscosity ([2]; 313.15 K, x2 = 0): 0.344 ± 0.01 mPa·s; speed of sound ([2]; 313.15 K, x2 = 0): 1081.2 ± 6.5 m/s; mass density ([2]; 313.15 K, x2 = 0): 875.9 ± 0.5 kg/m3 |
| CCOC(=O)CCl [ethyl chloroethanoate] | 1139.3 ± 0.9 kg/m3 | 0.9692 ± 0.012 mPa·s | 1229.4 ± 7.5 m/s | 1132.5 ± 0.9 kg/m3 | 0.8979 ± 0.012 mPa·s | 1212.4 ± 7.4 m/s | 1125.9 ± 0.9 kg/m3 | 0.8341 ± 0.012 mPa·s | 1197.6 ± 7.3 m/s | – |
| CCOC(=O)CC#N [ethyl cyanoacetate] | 1051.4 ± 1.4 kg/m3 | 2.186 ± 0.027 mPa·s | 1396.9 ± 8.6 m/s | 1046.5 ± 1.4 kg/m3 | 1.962 ± 0.024 mPa·s | 1384.8 ± 8.6 m/s | 1040.8 ± 1.5 kg/m3 | 1.77 ± 0.022 mPa·s | 1367.7 ± 8.5 m/s | – |
